Test results from patent US8592161B2, “Mutational profiles in HIV-1 protease correlated with phenotypic drug resistance” (Janssen R&D Ireland, priority 2002, dated 2013).
pEC50: −log10 of the molar value. Like-named read-outs stand apart in the source and are kept apart here.

Assays:
Type in all cases: cell-based
[1] = test system: HIV-1/LAI strain selected with Compound 1 (100 nM, 97 days), protease R41T K70E; assay: In vitro antiviral activity in acutely infected MT4 cells, selected strain; details: for pEC50: Human immunodeficiency virus 1, Table 1, strain R41T K70E (Compound 1 100 nM, 97 days), read-out: median EC50
Procedure: (§1) Determination of the antiviral activity of a compound was done as described in Pauwels R. et al. (J Virol Methods 1988; 20(4):309-21). Various concentrations of the test compounds were brought into each well of a flat-bottom microtiter plate. Subsequently, HIV and MT4 cells were added to a final concentration of 200-250 50% cell culture infectious doses (CCID50)/well and 30,000 cells/well, respectively. After 5 days of incubation (37° C., 5% CO2), the cytopathic effect of the replicating virus was determined by the tetrazolium colorimetric MTT method. The dose protecting 50% of the cells from virus cytopathic effect was defined as the EC50, while the dose achieving 90% protection was defined as the EC90.
(§2) MT4-LTR-EGFP cells were infected at a multiplicity of infection (MOI) of 0.01 to 0.001 CCID50/cell in the presence of inhibitor. The starting concentration of the inhibitor was two to tee times the EC50, a suboptimal concentration. The cultures were sub-cultivated and scored microscopically on virus-induced fluorescence and cytopathicity every 3-4 days. […] The escaping virus was further cultivated in the presence of the same inhibitor concentration in order to enrich the population in resistant variants. If full virus breakthrough was observed the supernatant was collected and stored (new virus strain). […] From the new viruses, a virus stock was grown in the absence of inhibitor.

[2] = test system: HIV-1/LAI strain selected with Comp 1 (100 nM, 139 days), protease S37S/N R41R/K K70E; assay: as above; details: for pEC50: Human immunodeficiency virus 1, Table 2, strain S37S/N R41R/K K70E (Comp 1 100 nM, 139 days), read-out: median EC50
Procedure: as §1
(§3) MT4-LTR-EGFP cells were infected at a multiplicity of infection (MOI) of 0.01 to 0.001 CCID50/cell in the presence of inhibitor. The starting concentration of the inhibitor was two to tee times the EC50, a suboptimal concentration. The cultures were sub-cultivated and scored microscopically on virus-induced fluorescence and cytopathicity every 3-4 days. The cultures were sub-cultivated in the presence of the same compound concentration until signs of virus replication were observed. The escaping virus was further cultivated in the presence of the same inhibitor concentration in order to enrich the population in resistant variants. If full virus breakthrough was observed the supernatant was collected and stored (new virus strain). Afterwards, the same virus was challenged with a higher compound concentration in order to select variants able to grow in the presence of as high as possible inhibitor concentrations. From the new viruses, a virus stock was grown in the absence of inhibitor.
(§4) In vitro drug selection experiments starting from wild-type HIV-1 under pressure of compound 1, compound 2, and Nelfinavir (NFV) have been performed. Tables 1, 2, 3, 4, and 5 show the genotypic and phenotypic characterization of the selected strains.

[3] = test system: HIV-1 strain selected with Comp 1 (20 nM, 94 days), protease R41G/R V82V/I; assay: as above; details: for pEC50: Human immunodeficiency virus 1, Table 4, strain R41G/R V82V/I (Comp 1 20 nM, 94 days), read-out: median EC50
Procedure: as §1, §3, §4

[4] = test system: HIV-1 strain selected with Comp 1 (40 nM, 175 days), protease R41G V82I; assay: as above; details: for pEC50: Human immunodeficiency virus 1, Table 4, strain R41G V82I (Comp 1 40 nM, 175 days), read-out: median EC50
Procedure: as §1, §3, §4

[5] = test system: HIV-1/LAI strain selected with Comp 1 (30 nM, 70 days), protease K70E; assay: as above; details: for pEC50: Human immunodeficiency virus 1, Table 2, strain K70E (Comp 1 30 nM, 70 days), read-out: median EC50
Procedure: as §1, §3, §4

[6] = test system: HIV-1/LAI strain selected with Compound 1 (30 nM, 45 days), protease R41T; assay: as above; details: for pEC50: Human immunodeficiency virus 1, Table 1, strain R41T (Compound 1 30 nM, 45 days), read-out: median EC50
Procedure: as §1, §3, §4

[7] = test system: HIV-1/LAI strain selected with Comp 1 (100 nM, 195 days), protease S37N R41S K70E; assay: as above; details: for pEC50: Human immunodeficiency virus 1, Table 2, strain S37N R41S K70E (Comp 1 100 nM, 195 days), read-out: median EC50
Procedure: as §1, §3, §4

[8] = test system: HIV-1/LAI strain selected with Comp 1 (200 nM, 328 days), protease S37N R41S K70E; assay: as above; details: for pEC50: Human immunodeficiency virus 1, Table 2, strain S37N R41S K70E (Comp 1 200 nM, 328 days), read-out: median EC50
Procedure: as §1, §3, §4

[9] = test system: HIV-1/LAI strain selected with Compound 1 (100 nM, 188 days), protease R41T K70E; assay: as above; details: for pEC50: Human immunodeficiency virus 1, Table 1, strain R41T K70E (Compound 1 100 nM, 188 days), read-out: median EC50
Procedure: as §1, §3, §4

[10] = test system: HIV-1 strain selected with Comp 1 (40 nM, 161 days), protease R41G V82I; assay: as above; details: for pEC50: Human immunodeficiency virus 1, Table 4, strain R41G V82I (Comp 1 40 nM, 161 days), read-out: median EC50
Procedure: as §1, §3, §4

HIV-1/LAI = assay: In vitro antiviral activity in acutely infected MT4 cells, wild type; details: read-out: median EC50
Procedure: as §1, §3, §4

[11] = test system: HIV-1 starting strain of Table 4 (no compound, no mutations); assay: In vitro antiviral activity in acutely infected MT4 cells, starting strain; details: for pEC50: Human immunodeficiency virus 1, starting strain HIV-1, no compound, read-out: median EC50
Procedure: as §1, §3, §4

[12] = test system: HIV-1/LAI strain selected with Compound 2 (100 nM), protease R41I; assay: In vitro antiviral activity in acutely infected MT4 cells, selected strain; details: Human immunodeficiency virus 1, Table 3, R41I strain selected with Compound 2 100 nM (head lists 116, 200, 264 days; assignment unclear), read-out: median EC50
Procedure: as §1, §2

[13] = test system: HIV-1/LAI strain selected with Compound 2 (100 nM), protease R41I; Table 3; assay: as above; details: Human immunodeficiency virus 1, R41I strain selected with Compound 2 100 nM (head lists 116, 200, 264 days; assignment unclear), read-out: median EC50
Procedure: as §1, §3, §4

[14] = test system: HIV-1/LAI strain selected with NFV (3000 nM, 69 days), protease L10F D30N M46I V77I I85V/I N88D/N; assay: as above; details: Human immunodeficiency virus 1, Table 5, strain L10F D30N M46I V77I I85V/I N88D/N (NFV 3000 nM, 69 days), read-out: median EC50
Procedure: as §1, §3, §4

[15] = test system: HIV-1/LAI strain selected with NFV (1000 nM, 35 days), protease D30N M46I; assay: as above; details: Human immunodeficiency virus 1, Table 5, strain D30N M46I (NFV 1000 nM, 35 days), read-out: median EC50
Procedure: as §1, §3, §4

[16] = test system: HIV-1/LAI strain selected with NFV (9000 nM, 140 days), protease L10F D30N R41R/K K45I/K M46I V77I I84V N88D; assay: as above; details: Human immunodeficiency virus 1, Table 5, strain L10F D30N R41R/K K45I/K M46I V77I I84V N88D (NFV 9000 nM, 140 days), read-out: median EC50
Procedure: as §1, §3, §4

[17] = test system: HIV-1/LAI strain selected with NFV (9000 nM, 11l days), protease L10F D30N R41R/K K45I/K M46I V77I I84V/I I85V/I N88D; assay: as above; details: Human immunodeficiency virus 1, Table 5, strain L10F D30N R41R/K K45I/K M46I V77I I84V/I I85V/I N88D (NFV 9000 nM, 11l days), read-out: median EC50
Procedure: as §1, §3, §4

[18] = Human immunodeficiency virus 1, MT4, Table 1, wild-type HIV/LAI
[19] = Human immunodeficiency virus 1, MT4, Table 2, wild-type HIV-1/LAI
[20] = Human immunodeficiency virus 1, MT4, Table 4, wild-type HIV-1/LAI
[21] = Human immunodeficiency virus 1, MT4, Table 3, wild-type HIV-1/LAI
[22] = Human immunodeficiency virus 1, MT4, Table 5, wild-type HIV-1/LAI

Row | SMILES | pEC50 [1] | pEC50 [2] | pEC50 [3] | pEC50 [4] | pEC50 [5] | pEC50 [6] | pEC50 [7] | pEC50 [8] | pEC50 [9] | pEC50 [10] | pEC50 (HIV-1/LAI; [18]) | pEC50 (HIV-1/LAI; [19]) | pEC50 (HIV-1/LAI; [20]) | pEC50 [11] | pEC50 [12] | pEC50 [13] | pEC50 (HIV-1/LAI; [21]) | pEC50 [14] | pEC50 [15] | pEC50 [16] | also measured
1 | CC(C)CN(C[C@@H](O)[C@H](Cc1ccccc1)NC(=O)O[C@H]1CO[C@H]2OCC[C@H]21)S(=O)(=O)c1ccc(N)cc1 [Compound 1, Carbamic acid, [(1S,2R)-3-[[(4-aminophenyl)sulfonyl](2-methylpropyl)amino]-2-hydroxy-1-(phenylmethyl)propyl]-, (3R,3aS,6aR)-hexahydrofuro[2,3-b]furan-3-yl ester] | 7.59 | 8.60 | 8.96 | 8.72 | 8.19 | 8.11 | 8.33 | 9.40 | 7.36 | 8.59 | 8.49 | 8.59 | 8.59 | 8.47 |  |  |  |  |  |  | median FC (fold change in EC50 as compared to wild type) ([1]; Table 1, strain R41T K70E (Compound 1 100 nM, 97 days)): 8; median FC (fold change in EC50 as compared to wild type) ([2]; Table 2, strain S37S/N R41R/K K70E (Comp 1 100 nM, 139 days)): 1; median FC (fold change in EC50 as compared to wild type) ([3]; Table 4, strain R41G/R V82V/I (Comp 1 20 nM, 94 days)): 0; median FC (fold change in EC50 as compared to wild type) ([4]; Table 4, strain R41G V82I (Comp 1 40 nM, 175 days)): 1; median FC (fold change in EC50 as compared to wild type) ([5]; Table 2, strain K70E (Comp 1 30 nM, 70 days)): 3; median FC (fold change in EC50 as compared to wild type) ([6]; Table 1, strain R41T (Compound 1 30 nM, 45 days)): 2; median FC (fold change in EC50 as compared to wild type) ([7]; Table 2, strain S37N R41S K70E (Comp 1 100 nM, 195 days)): 2; median FC (fold change in EC50 as compared to wild type) ([8]; Table 2, strain S37N R41S K70E (Comp 1 200 nM, 328 days)): 0.2; median FC (fold change in EC50 as compared to wild type) ([9]; Table 1, strain R41T K70E (Compound 1 100 nM, 188 days)): 10; median FC (fold change in EC50 as compared to wild type) ([10]; Table 4, strain R41G V82I (Comp 1 40 nM, 161 days)): 1; median FC (fold change in EC50 as compared to wild type) ([11]; starting strain HIV-1, no compound): 1
2 | CC(C)CN(C[C@@H](O)[C@H](Cc1ccccc1)NC(=O)O[C@H]1CO[C@H]2OCC[C@H]21)S(=O)(=O)c1ccc2nc(NCCN3CCCC3)sc2c1 [Compound 2] |  |  |  |  |  |  |  |  |  |  |  |  |  |  | 7.21 | 8.16 | 7.92 |  |  |  | 
3 | Cc1cccc(C)c1OCC(=O)N[C@@H](Cc1ccccc1)[C@@H](O)C[C@H](Cc1ccccc1)NC(=O)[C@H](C(C)C)N1CCCNC1=O [Lopinavir] |  | 8.55 | 8.70 | 9.00 | 7.77 | 7.57 | 8.41 | 8.96 | 7.33 | 8.74 | 8.10 | 8.34 | 8.34 | 8.17 | 7.74 | > 9.05 | 8.34 | 7.62 | 8.11 | 7.25 | pEC50 [17]: 7.41; pEC50 (HIV-1/LAI; [22]): 8.34
4 | CC(C)c1nc(CN(C)C(=O)N[C@H](C(=O)N[C@@H](Cc2ccccc2)C[C@H](O)[C@H](Cc2ccccc2)NC(=O)OCc2cncs2)C(C)C)cs1 [Ritonavir] | 7.68 | 7.66 | 8.38 | 8.77 | 7.33 | 7.49 | 7.85 | 7.51 | 7.34 | 8.20 | 7.51 | 7.48 | 7.48 | 7.66 |  | 7.66 | 7.48 | 7.57 | 7.72 | 6.77 | pEC50 [17]: 7.07; pEC50 (HIV-1/LAI; [22]): 7.48
